Data set [1] deals with T1, bovine erythrocyte carbonic anhydrase II (Bos taurus, UniProt P00921).
T1 construct: purified bovine erythrocyte carbonic anhydrase II; from tissue; host or cells: bovine erythrocytes
The data set can be described thus: Carbonic anhydrase II inhibition, colorimetric 4-nitrophenyl acetate hydrolysis. In kind it is biochemical. To be noted: for IC50: n = 2. Here is the method: The catalytic activity of carbonic anhydrase II was assessed by a colorimetric method, in which 4-nitrophenyl acetate is hydrolyzed to acetate and nitrophenolate. The nitrophenolate ionizes to generate a bright yellow anion that is readily detected by measuring its absorbance at 350-400 nm. […] Acetazolamide was added as a positive control and 100% DMSO was added as a negative control. The reaction was initiated with the addition of 20 μL of 4-nitrophenyl acetate (0.7 mM in ethanol).

Data set [2] can be described thus: In vitro stability of brinzolamide and dorzolamide NCEs (RP-HPLC). The conditions noted are these: PBS pH 7, 10% DMSO; for in vitro stability / degradation kinetics: 37° C. and accelerated conditions, 14-19 days; for primary compound remaining: 37° C. Here is the method:
The samples were incubated at 37° C. or 50° C. to simulate physiological and accelerated degradation conditions, respectively. At various time points, 100 μL of the solution was collected, diluted 10-fold with MeCN+0.1% formic acid, filtered through a 0.2 μm nylon syringe filter and analyzed by RP-HPLC.

Data set [3] can be described thus: Determination of drug solubility. The conditions noted are these: for solubility: thermodynamic from solid. In kind it is physicochemical. Here is the method:
For each test, approximately 5-10 mg was transferred to a 10 mL glass vial. Aqueous or organic solvent was added to each vial to achieve an overall concentration of 50 mg/mL. After vortexing aggressively for 2-3 minutes and sonicating in a bath sonicator for 5 minutes, undissolved drug was spun down at 1200 rpm for 5 minutes to generate a pellet. The supernatant was collected and filtered through a 0.2 μm nylon syringe filter into HPLC vials for drug content analysis. Drug concentration was determined by comparing against a standard calibration curve.

The mark [4] stands for this setting: DCM, organic solvent or mixture, read-out: Solubility DCM.
The mark [5] stands for this setting: DMSO, organic solvent or mixture, read-out: Solubility DMSO.
[6] abbreviates: water / aqueous solvent, read-out: Solubility Water.

These results are taken from patent US10117950B2, “Compounds and compositions for the treatment of ocular disorders” (Graybug Vision, Inc., priority 2015, dated 2018).

Where two headings read alike, the source gives them in different places. A value given as a limit tells only on which side of the number the result lay.

T1 sequence (P00921 whole entry): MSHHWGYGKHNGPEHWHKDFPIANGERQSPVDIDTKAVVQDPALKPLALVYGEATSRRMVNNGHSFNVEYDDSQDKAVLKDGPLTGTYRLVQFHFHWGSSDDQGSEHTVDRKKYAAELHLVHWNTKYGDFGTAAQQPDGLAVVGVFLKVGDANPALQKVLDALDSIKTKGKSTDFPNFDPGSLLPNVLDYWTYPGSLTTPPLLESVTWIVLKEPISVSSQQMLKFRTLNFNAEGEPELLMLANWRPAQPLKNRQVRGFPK

In data set [1], `CCN[C@H]1C[C@H](C)S(=O)(=O)c2sc(S(=O)(=O)NC(=O)[C@H](C)O)cc21` [19-3, dorzolamide-PLA (n=1)] displayed an IC50 of 3.32 ± 2.71 nM. Also, the “in vitro stability / degradation kinetics” value in data set [2] is reported as “the most stable”.
`CCN[C@H]1C[C@H](C)S(=O)(=O)c2sc(S(=O)(=O)NC(=O)[C@H](C)OC(=O)[C@H](C)OC(=O)[C@H](C)OC(C)=O)cc21` [26-1] registered a concentration for half-maximal inhibition (IC50) in data set [1] of 16.4 ± 7.25 nM. In addition, the solubility in data set [3] (setting [4]), in data set [3] (setting [5]) and in data set [3] (setting [6]) was more than 50 mg/mL each time.
In data set [1], `CCN[C@H]1C[C@H](C)S(=O)(=O)c2sc(S(=O)(=O)NC(=O)[C@H](C)OC(=O)[C@H](C)OC(=O)[C@H](C)OC(=O)[C@H](C)OC(C)=O)cc21` [27-1] showed a half-inhibitory concentration (IC50) of 44.1 ± 14.8 nM. Moreover, the solubility in data set [3] (setting [4]) was more than 50 mg/mL; in data set [3] (setting [5]), more than 50 mg/mL; in data set [3] (setting [6]) it was less than 1 mg/mL.
Regarding `CCN[C@H]1C[C@H](C)S(=O)(=O)c2sc(S(=O)(=O)NC(=O)[C@H](C)OC(=O)[C@H](C)OC(=O)[C@H](C)OC(=O)[C@H](C)OC(=O)[C@H](C)OC(C)=O)cc21` [28-1, dorzolamide-acetyl PLA (n=5)], the half-maximal inhibitory concentration (IC50) in data set [1] was found to be 89.2 ± 18.1 nM. Further, the figures for the solubility in data set [3] (setting [4]), in data set [3] (setting [5]) and in data set [3] (setting [6]) were more than 50 mg/mL, more than 50 mg/mL and less than 1 mg/mL, respectively.
With `CCN[C@H]1C[C@H](C)S(=O)(=O)c2sc(S(=O)(=O)NC(=O)[C@H](C)OC(=O)[C@H](C)OC(=O)[C@H](C)OC(=O)[C@H](C)OC(=O)[C@H](C)OC(=O)[C@H](C)OC(C)=O)cc21` [29-1, dorzolamide-acetyl PLA (n=6)], the values for the solubility in data set [3] (setting [4]), in data set [3] (setting [5]) and in data set [3] (setting [6]) were more than 50 mg/mL, more than 50 mg/mL and less than 1 mg/mL, respectively.
On to `CCN[C@H]1CN(CCCOC)S(=O)(=O)c2sc(S(=O)(=O)NC(=O)[C@H](C)O)cc21` [32-3, brinzolamide-PLA (n=1)], for which, in data set [1], the midpoint of inhibition, the IC50, lay at 5.78 ± 3.78 nM. Also, the “in vitro stability / degradation kinetics” value in data set [2] was “slowest”. Moreover, the primary compound remaining in data set [2] (14 days) is given as more than 98%.
`CCN[C@H]1CN(CCCOC)S(=O)(=O)c2sc(S(=O)(=O)NC(=O)[C@H](C)OC(=O)[C@H](C)O)cc21` [33-2, brinzolamide-PLA (n=2)] yielded an IC50 in data set [1] of 10.7 ± 7.27 nM. Moreover, the primary compound remaining result in data set [2] (14 days) is given as “approximately 53%”. Also, the solubility in data set [3] (setting [4]), in data set [3] (setting [5]) and in data set [3] (setting [6]) was more than 50 mg/mL in each case.
For the compound `CCN[C@H]1CN(CCCOC)S(=O)(=O)c2sc(S(=O)(=O)NC(=O)[C@H](C)OC(=O)[C@H](C)OC(=O)[C@H](C)O)cc21` [34-2, brinzolamide-PLA (n=3)], the concentration for half-maximal inhibition (IC50) in data set [1] was found to be 21.5 ± 11.2 nM. In addition, the “in vitro stability / degradation kinetics” value in data set [2] is reported as “minimal degradation to the parent compound”. Besides, the primary compound remaining result in data set [2] (day 7) is “approximately 2.7%”. Moreover, the solubility in data set [3] (setting [4]), in data set [3] (setting [5]) and in data set [3] (setting [6]) was more than 50 mg/mL each time.
Take `CCN[C@H]1CN(CCCOC)S(=O)(=O)c2sc(S(=O)(=O)NC(=O)[C@H](C)OC(=O)[C@H](C)OC(=O)[C@H](C)OC(C)=O)cc21` [36-1, brinzolamide-acetyl PLA (n=3)]: the primary compound remaining result in data set [2] (day 7) was “approximately 15.4%”. The solubility in data set [3] (setting [4]), in data set [3] (setting [5]) and in data set [3] (setting [6]) was more than 50 mg/mL throughout.
Consider `CCN[C@H]1CN(CCCOC)S(=O)(=O)c2sc(S(=O)(=O)NC(=O)[C@H](C)OC(=O)[C@H](C)OC(=O)[C@H](C)OC(=O)[C@H](C)OC(C)=O)cc21` [37-1, brinzolamide-acetyl PLA (n=4)], for which the half-maximal inhibitory concentration (IC50) in data set [1] came to 41.5 ± 11.2 nM. The values for the solubility in data set [3] (setting [4]), in data set [3] (setting [5]) and in data set [3] (setting [6]) were more than 50 mg/mL, more than 50 mg/mL and less than 1 mg/mL, respectively.
As for `CCN[C@H]1CN(CCCOC)S(=O)(=O)c2sc(S(=O)(=O)NC(=O)[C@H](C)OC(=O)[C@H](C)OC(=O)[C@H](C)OC(=O)[C@H](C)OC(=O)[C@H](C)OC(C)=O)cc21` [38-1, brinzolamide-acetyl PLA (n=5)], in data set [1], inhibition was half-maximal at 102 ± 31.4 nM (IC50). In addition, the solubility was more than 50 mg/mL in data set [3] (setting [4]), more than 50 mg/mL in data set [3] (setting [5]) and less than 1 mg/mL in data set [3] (setting [6]).
With `CCN[C@H]1CN(CCCOC)S(=O)(=O)c2sc(S(=O)(=O)NC(=O)[C@H](C)OC(=O)[C@H](C)OC(=O)[C@H](C)OC(=O)[C@H](C)OC(=O)[C@H](C)OC(=O)[C@H](C)OC(C)=O)cc21` [39-1, brinzolamide-acetyl PLA (n=6)], the IC50 in data set [1] turned out to be 172 ± 35.6 nM. The solubility is more than 50 mg/mL in data set [3] (setting [4]), more than 50 mg/mL in data set [3] (setting [5]) and less than 1 mg/mL in data set [3] (setting [6]).
Regarding `CCN[C@H]1CN(CCCOC)S(=O)(=O)c2sc(S(=O)(=O)NC(=O)[C@H](C)OC(=O)[C@H](C)OC(=O)[C@H](C)OC(C)(C)C)cc21` [40-1, brinzolamide-t-butyl PLA (n=3)], the “in vitro stability / degradation kinetics” value in data set [2] is “significantly slower than its acetylated (36-1) or uncapped counterpart (34-2)”.
As for `CCN(CC)CCNC(=O)c1c(C)[nH]c(/C=C2\C(=O)Nc3ccc(N)cc32)c1C` [47-1, 5-[5-amino-2-oxo-1,2-dihydro-indol-(3Z)-ylidenemethyl]-2,4-dimethyl-1H-pyrrole-3-carboxylic acid (2-diethylamino-ethyl)-amide], the solubility was more than 50 mg/mL in data set [3] (setting [5]) and less than 1 mg/mL in data set [3] (setting [6]).
On to `C=C(CC)C(=O)c1ccc(OCC(=O)O)c(Cl)c1Cl` [54-1, ethacrynic acid], for which, in data set [3] (DMSO), the “Solubility DMSO” value is listed as more than 50 mg/mL. Moreover, the “Solubility Water” value in data set [3] (water / aqueous solvent) is given as less than 1.0 mg/mL.
In the case of `CCN[C@H]1C[C@H](C)S(=O)(=O)c2sc(S(=O)(=O)NC(=O)[C@H](C)OC(=O)[C@H](C)OC(=O)[C@H](C)OC(=O)CCC(=O)Oc3ccc4c(c3)/C(=C/c3[nH]c(C)c(C(=O)NCCN(CC)CC)c3C)C(=O)N4)cc21` [56-5, (3Z)-3-[(4-{[2-(Diethylamino)ethyl]carbamoyl}-3,5-dimethyl-1H-pyrrol-2-yl)methylidene]-2-oxo-2,3-dihydro-1H-indol-5-yl 1-(2S)-1-{[(2S)-1-[(1S)-1-({[(2S,4S)-4-(ethylamino)-2-methyl-1,1-dioxo-2H,3H,4H-1λ^6-thieno[2,3-b]thiopyran-6-yl]sulfonyl}carbamoyl)ethoxy]-1-oxopropan-2-yl]oxy}-1-oxopropan-2-yl butanedioate], in data set [1], the “carbonic anhydrase inhibitory activity” value was “lowest inhibitory activity” and the IC50 was found to be 184 ± 44.8 nM. Also, the solubility in data set [3] (setting [5]) is more than 50 mg/mL. Further, in data set [3] (setting [6]), the solubility is less than 1 mg/mL.
Turning to `CCN(CC)CCNC(=O)c1c(C)[nH]c(/C=C2\C(=O)Nc3ccc(OC(=O)CCCCC(=O)N(CC)[C@H]4CN(CCCOC)S(=O)(=O)c5sc(S(=O)(=O)NC(=O)[C@H](C)OC(=O)[C@H](C)OC(=O)[C@H](C)O)cc54)cc32)c1C` [61-2, (3Z)-3-[(4-{[2-(diethylamino)ethyl]carbamoyl}-3,5-dimethyl-1H-pyrrol-2-yl)methylidene]-2-oxo-2,3-dihydro-1H-indol-5-yl 5-{ethyl[(4R)-6-{[(2S)-2-{[(2S)-2-{[(2S)-2-hydroxypropanoyl]oxy}propanoyl]oxy}propanamido]sulfonyl}-2-(3-methoxypropyl)-1,1-dioxo-2H,3H,4H-1λ^6-thieno[3,2-e][1,2]thiazin-4-yl]carbamoyl}pentanoate], the figures for the solubility in data set [3] (setting [5]) and in data set [3] (setting [6]) were more than 50 mg/mL and less than 1 mg/mL, respectively.
For the compound `CCN[C@H]1CN(CCCOC)S(=O)(=O)c2sc(S(=O)(=O)NC(=O)[C@H](C)OC(=O)[C@H](C)OC(=O)[C@H](C)OC(=O)CCCCC(=O)Oc3ccc4c(c3)/C(=C/c3[nH]c(C)c(C(=O)NCCN(CC)CC)c3C)C(=O)N4)cc21` [61-3, (3Z)-3-[(4-{[2-(diethylamino)ethyl]carbamoyl}-3,5-dimethyl-1H-pyrrol-2-yl)methylidene]-2-oxo-2,3-dihydro-1H-indol-5-yl 1-(2S)-1-[(2S)-1-[(1S)-1-({[(4R)-4-(ethylamino)-2-(3-methoxypropyl)-1,1-dioxo-2H,3H,4H-1λ^6-thieno[3,2-e][1,2]thiazin-6-yl]sulfonyl}carbamoyl)ethoxy]-1-oxopropan-2-yl]oxy}-1-oxopropan-2-yl hexanedioate], in data set [3] (DMSO), the “Solubility DMSO” value was more than 50 mg/mL. In data set [3] (water / aqueous solvent), the “Solubility Water” value is less than 1.0 mg/mL.
With `CCN[C@H]1CN(CCCOC)S(=O)(=O)c2sc(S(N)(=O)=O)cc21` [Brinzolamide, reference compound], the solubility is less than 7.5 mg/mL in data set [3] (setting [4]), more than 50 mg/mL in data set [3] (setting [5]) and less than 1 mg/mL in data set [3] (setting [6]). For the same compound, the “Solubility DMSO” value in data set [3] (DMSO) is given as more than 50 mg/mL. In data set [3] (water / aqueous solvent), the “Solubility Water” value was less than 1.0 mg/mL.
`CCN[C@H]1C[C@H](C)S(=O)(=O)c2sc(S(N)(=O)=O)cc21` [Dorzolamide, reference compound]: the solubility in data set [3] (setting [4]) is less than 1 mg/mL; in data set [3] (setting [5]), less than 1 mg/mL; in data set [3] (setting [6]), more than 50 mg/mL. For the same compound, the organic solubility entry in data set [3] (organic solvent) is reported as “low organic solubility”. Further, in data set [3] (water / aqueous solvent), the “Solubility Water” value was more than 50 mg/mL.
